In ChEMBL document CHEMBL5620406, “Synthesis and biological evaluation of novel pyrazole amides as potent mitochondrial complex I inhibitors” (Eur J Med Chem, 2023):

Columns and labels:
HCT-116 [1] = test: Induction of mitochondrial dysfunction in human HCT-116 cells assessed as attenuation of basal oxygen consumption incubated for 24 hrs by Seahorse XFe24 analyzer; assay type: functional, cell-based; conditions: dose 2-10 nM
HCT-116 [2] = test: Induction of mitochondrial dysfunction in human HCT-116 cells assessed as attenuation of maximum oxygen consumption rate incubated for 24 hrs by Seahorse XFe24 analyzer; assay type: functional, cell-based; conditions: dose 2-10 nM
[3] = Acute toxicity in BALB/c mouse assessed as decrease in body weight at 40 mg/kg, ip measured for 24 hrs; assay type: organism-based; conditions: in vivo
[4] = Acute toxicity in BALB/c mouse assessed as effect on ALB level at 68 mg/kg, ip measured on day 14; assay type: organism-based; conditions: in vivo, 336 h, time 14 day
[5] = Toxicity in NOD-SCID mouse xenografted with human KG-1 cells assessed as effect on HDL level at 5 mg/kg, ip qd administered 5 consecutive days per week for 24 days; assay type: organism-based; conditions: in vivo, 576 h, time 24 day
[6] = Toxicity in NOD-SCID mouse xenografted with human KG-1 cells assessed as effect on UA level at 5 mg/kg, ip qd administered 5 consecutive days per week for 24 days; assay type: organism-based; conditions: in vivo, 576 h, time 24 day
[7] = Toxicity in NOD-SCID mouse xenografted with human KG-1 cells assessed as effect on RBC count at 5 mg/kg, ip qd administered 5 consecutive days per week for 24 days; assay type: organism-based, Erythrocyte; conditions: in vivo, 576 h, time 24 day
[8] = Toxicity in NOD-SCID mouse xenografted with human KG-1 cells assessed as effect on MCHC level at 5 mg/kg, ip qd administered 5 consecutive days per week for 24 days; assay type: organism-based; conditions: in vivo, 576 h, time 24 day
[9] = Apparent permeability across basolateral side to apical in human Caco-2 cells incubated for 120 mins by LC-MS/MS analysis; assay type: ADME, cell-based

SMILES | Activity (HCT-116 [1]) | Activity (HCT-116 [2]) | Activity [3] | Activity [4] | Activity [5] | Activity [6] | Activity [7] | Activity [8] | Papp B→A at 2 h [9] [×10⁻⁶ cm/s]
Cc1cc(C(=O)Nc2ccc(C(F)(F)F)cc2)nn1Cc1cccc(N2CCN(C(=O)C3CC3)CC2)c1 | Dose-Dependent Effect | Dose-Dependent Effect | Non-Toxic | Non-Toxic | Non-Toxic | Non-Toxic | Non-Toxic | Non-Toxic | 3.08
Cc1cc(C(=O)Nc2ccc(OC(F)(F)F)cc2)nn1Cc1cccc(N2CCN(C(=O)C3CC3)CC2)c1 | Dose-Dependent Effect | Dose-Dependent Effect | Non-Toxic | Non-Toxic | Non-Toxic | Non-Toxic | Non-Toxic | Non-Toxic | 3.25
